# Columns and labels:
# Format in all cases: in vivo
# Solanum nigrum (SOLNI) [1] = assay: Example B post-emergence herbicidal activity, glasshouse pot test; conditions: 312 h, rate 1000 g/ha, evaluated after 13 days, read-out: herbicidal damage SOLNI (100=total damage to plant; 0=no damage to plant)
# Description: (§1) Seeds of a variety of test species were sown in standard soil in pots. After cultivation for one day (pre-emergence) or after 8 days cultivation (post-emergence) under controlled conditions in a glasshouse (at 24/16° C., day/night; 14 hours light; 65% humidity), the plants were sprayed with an aqueous spray solution derived from the formulation of the technical active ingredient in acetone/water (50:50) solution containing 0.5% Tween 20 (polyoxyethelyene sorbitan monolaurate, CAS RN 9005-64-5). The test plants were then grown in a glasshouse under controlled conditions in a glasshouse (at 24/16° C., day/night; 14 hours light; 65% humidity) and watered twice daily. After 13 days for pre and post-emergence, the test was evaluated (100=total damage to plant; 0=no damage to plant). Alopecurus myosuroides (ALOMY), Avena fatua (AVEFA), Setaria faberi (SETFA), Echinochloa crus-galli (ECHCG), Solanum nigrum (SOLNI) and Amaranthus retroflexus (AMARE) Post-Emergence Activity
# [2] = test system: Alopecurus myosuroides (ALOMY); assay: as above; conditions: 312 h, rate 1000 g/ha, evaluated after 13 days, read-out: herbicidal damage ALOMY (100=total damage to plant; 0=no damage to plant)
# Description: as §1
# [3] = test system: Amaranthus retroflexus (AMARE); assay: as above; conditions: 312 h, rate 1000 g/ha, evaluated after 13 days, read-out: herbicidal damage AMARE (100=total damage to plant; 0=no damage to plant)
# Description: as §1
# [4] = test system: Echinochloa crus-galli (ECHCG); assay: as above; conditions: 312 h, rate 1000 g/ha, evaluated after 13 days, read-out: herbicidal damage ECHCG (100=total damage to plant; 0=no damage to plant)
# Description: as §1
# Setaria faberi (SETFA) [5] = assay: as above; conditions: 312 h, rate 1000 g/ha, evaluated after 13 days, read-out: herbicidal damage SETFA (100=total damage to plant; 0=no damage to plant)
# Description: as §1
# Avena fatua (AVEFA) [6] = assay: as above; conditions: 312 h, rate 1000 g/ha, evaluated after 13 days, read-out: herbicidal damage AVEFA (100=total damage to plant; 0=no damage to plant)
# Description: as §1
# Solanum nigrum (SOLNI) [7] = assay: Example B pre-emergence herbicidal activity, glasshouse pot test; conditions: 312 h, rate 1000 g/ha, evaluated after 13 days, read-out: herbicidal damage SOLNI (100=total damage to plant; 0=no damage to plant)
# Description: as §1, with “Pre-Emergence” for “Post-Emergence”
# [8] = test system: Alopecurus myosuroides (ALOMY); assay: as above; conditions: 312 h, rate 1000 g/ha, evaluated after 13 days, read-out: herbicidal damage ALOMY (100=total damage to plant; 0=no damage to plant)
# Description: as §1, with “Pre-Emergence” for “Post-Emergence”
# [9] = test system: Amaranthus retroflexus (AMARE); assay: as above; conditions: 312 h, rate 1000 g/ha, evaluated after 13 days, read-out: herbicidal damage AMARE (100=total damage to plant; 0=no damage to plant)
# Description: as §1, with “Pre-Emergence” for “Post-Emergence”
# [10] = test system: Echinochloa crus-galli (ECHCG); assay: as above; conditions: 312 h, rate 1000 g/ha, evaluated after 13 days, read-out: herbicidal damage ECHCG (100=total damage to plant; 0=no damage to plant)
# Description: as §1, with “Pre-Emergence” for “Post-Emergence”
# Setaria faberi (SETFA) [11] = assay: as above; conditions: 312 h, rate 1000 g/ha, evaluated after 13 days, read-out: herbicidal damage SETFA (100=total damage to plant; 0=no damage to plant)
# Description: as §1, with “Pre-Emergence” for “Post-Emergence”
# Avena fatua (AVEFA) [12] = assay: as above; conditions: 312 h, rate 1000 g/ha, evaluated after 13 days, read-out: herbicidal damage AVEFA (100=total damage to plant; 0=no damage to plant)
# Description: as §1, with “Pre-Emergence” for “Post-Emergence”
Structure (SMILES),pest or weed control at 1000 g/ha (Solanum nigrum (SOLNI) [1]) [%],pest or weed control at 1000 g/ha [2] [%],pest or weed control at 1000 g/ha [3] [%],pest or weed control at 1000 g/ha [4] [%],pest or weed control at 1000 g/ha (Setaria faberi (SETFA) [5]) [%],pest or weed control at 1000 g/ha (Avena fatua (AVEFA) [6]) [%],pest or weed control at 1000 g/ha (Solanum nigrum (SOLNI) [7]) [%],pest or weed control at 1000 g/ha [8] [%],pest or weed control at 1000 g/ha [9] [%],pest or weed control at 1000 g/ha [10] [%],pest or weed control at 1000 g/ha (Setaria faberi (SETFA) [11]) [%],pest or weed control at 1000 g/ha (Avena fatua (AVEFA) [12]) [%]
COCC1COC(CC2CC(=O)C(c3cc(-c4ccc(Cl)cc4)ccc3C)=C(O)C2)O1 (stereo not drawn) [Compound A-63],0,90,0,100,100,90,0,0,20,20,70,0
Cc1ccc(-c2ccc3c(c2)OCCO3)cc1C1=C(O)CC(CC2CCOCC2)CC1=O (stereo not drawn) [Compound A-54],0,0,0,70,0,0,0,60,0,0,0,10
Cc1ccc(-c2ccc(F)c(F)c2)cc1C1=C(O)CC(CC2CCOCC2)CC1=O (stereo not drawn) [Compound A-40],0,70,30,100,90,70,0,0,0,30,0,0
Cc1ccc(-c2ccc3c(c2)OCO3)cc1C1=C(O)CC(CC2CCOCC2)CC1=O (stereo not drawn) [Compound A-53],0,50,0,70,60,50,0,0,0,0,0,0
Cc1ccc(-c2ccc(Cl)cc2)cc1C1=C(O)CC(CC2OCC(C)CO2)CC1=O (stereo not drawn) [Compound A-64],0,80,0,100,100,80,0,0,0,50,50,0
Cc1ccc(-c2cc(C)c(C3=C(O)CC(CC4CCOCC4)CC3=O)c(C)c2)cc1 (stereo not drawn) [Compound A-36],50,70,0,100,100,70,0,60,0,90,100,40
Cc1ccc(-c2ccc(Cl)cc2)cc1C1=C(O)CC(CC2OCCCCO2)CC1=O (stereo not drawn) [Compound A-62],0,90,0,100,100,80,0,20,0,50,60,0
Cc1ccc(-c2cccnc2OCC2CC2)cc1C1=C(O)CC(CC2CCOCC2)CC1=O (stereo not drawn) [Compound A-27],0,10,0,30,60,0,0,0,0,0,0,0
Cc1ccc(-c2ccc(Cl)cc2)cc1C1=C(O)CC(CC2O[C@H]3COC[C@H]3O2)CC1=O (stereo partly drawn) [Compound A-61],0,90,0,100,100,80,0,0,0,20,30,0
CCc1cc(-c2ccc(C)cc2)cc(CC)c1C1=C(O)CC(CC2CCOCC2)CC1=O (stereo not drawn) [Compound A-33],70,30,60,100,80,70,0,50,0,90,100,60
Cc1ccc(-c2ccc(F)cc2)cc1C1=C(O)CC(CC2CCOCC2)CC1=O (stereo not drawn) [Compound A-39],0,60,0,80,90,80,0,0,0,0,0,0
Cc1ccc(-c2ccc(OC(F)(F)F)cc2)cc1C1=C(O)CC(CC2CCOCC2)CC1=O (stereo not drawn) [Compound A-29],20,10,70,60,60,0,30,20,50,20,0,0
Cc1ccc(-c2ccc(Cl)cc2)cc1C1=C(O)CC(CC2OCC(CC3CCOCC3)O2)CC1=O (stereo not drawn) [Compound A-60],0,60,0,90,90,10,0,0,0,30,30,0

# Source: patent US8735322B2, “Herbicides” (Syngenta Limited, priority 2008, dated 2014)
